{
  "source": "patent US11185588B2",
  "about": "“Pharmaceutical dosage forms comprising valganciclovir hydrochloride” (Hoffmann-La Roche Inc., priority 2006, dated 2021)",
  "key": {"physchem": {"test": "physchem", "type": "physicochemical", "procedure": "(§1) The solubility of valganciclovir hydrochloride (active pharmaceutical ingredient, API) in aqueous solution is pH dependent. […] Valganciclovir hydrochloride is freely soluble under acidic conditions with a maximum solubility of greater than 200 mg/mL in the pH range of 4-6. The stability of valganciclovir hydrochloride is greatest at a pH<3.8."}, "[1]": {"type": "physicochemical", "details": "pH 7", "procedure": "as §1"}, "pKa": {"test": "pKa", "type": "physicochemical", "procedure": "as §1"}, "[2]": {"test": "pH dependence of stability in aqueous solution", "type": "physicochemical", "details": "monohydrochloride", "procedure": "as §1\nThe following excipients were used to prepare the formulations of Type I. Citric acid anhydrous was combined with sodium citrate to form the buffer system to ensure an acidic pH. […] Sodium benzoate was used as a preservative agent and sodium saccharin was used as an artificial sweetening agent. Maltose, a crystalline disaccharide carbohydrate, was used as a bulking agent (diluent) and to provide desirable mouth feel and sweetness. Strawberry flavor was used as the flavor of the oral solution."}, "[3]": {"test": "Hygroscopicity on exposure to relative humidity", "type": "physicochemical", "details": "exposed to 80% relative humidity", "text": "Valganciclovir hydrochloride is moderately hygroscopic, with only small changes in moisture observed when the valganciclovir hydrochloride is exposed to moderate relative humidity. A weight gain of up to approximately 3% occurs when the valganciclovir hydrochloride is exposed to 80% relative humidity (for a total moisture content of up to approximately 8%). It is reversibly hygroscopic and will either absorb or release moisture under ambient humidity conditions, depending on the water content of the valganciclovir hydrochloride and the relative humidity."}},
  "data": [
    {"smiles": "CC(C)[C@H](N)C(=O)OCC(CO)OCn1cnc2c(=O)[nH]c(N)nc21.Cl", "note": "(stereo partly drawn) [valganciclovir hydrochloride, L-Valine, 2-[(2-amino-1,6-dihydro-6-oxo-9H-purin-9-yl)methoxy]-3-hydroxypropyl ester, monohydrochloride]", "values": [
      {"measurement": "solubility", "setting": "physchem; 25 °C, pH 7, water", "result": 70, "unit": "mg/mL"},
      {"measurement": "solubility", "setting": "physchem; aqueous buffer", "result": "> 200", "unit": "mg/mL"},
      {"measurement": "solubility in water", "setting": "physchem; pH 7", "result": 70, "unit": "mg/mL"},
      {"measurement": "n-octanol/water partition coefficient", "setting": "[1]", "result": 0.0095},
      {"measurement": "pKa", "setting": "pKa", "result": 7.6},
      {"measurement": "pH at which stability is greatest", "setting": "[2]; listed as valganciclovir", "result": "≤ 3.8"},
      {"measurement": "pH at which stability is greatest", "setting": "[2]", "result": "< 3.8"},
      {"measurement": "total moisture content", "setting": "[3]", "result": "≤ 8", "unit": "%"},
      {"measurement": "weight gain", "setting": "[3]", "result": "≤ 3", "unit": "%"}
    ]}
  ]
}
